Where a SMILES comes first, the peptide text is derived from it. [ ]: non-standard residue; d: D form. The star is where a group is joined. NHCH2CH2OH = OCCN*; For = O=C*
Key:
[1] = H+/Na+ transport assay of bead-derived peptides (one-point); format: biochemical; set-up: key: relative activity; mean of two control wells = 1.00; settings: bead-derived peptide solution, EYPC/EYPG LUVs;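 further: relative to parent gramicidin A activity set to 1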
How it was run: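 Miniaturized 96-well format. LUVs with entrapped pyranine (1.0 mM) were exposed to peptide for 30 min at RT. Intensities were expressed relative to full lysis by Triton X-100 and no treatment, with control-well mean = 1.00.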

[2] = tested on: P388 mouse leukemia cells; settings: 92 h
How it was run: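 Peptide stocks diluted 250× in growth medium; P388 cells 1 × 10^4 cells/mL final; 37 °C, 5% CO2, 92 h. WST-1 + 1-methoxy PMS, 4 h, A415. Output: % viability.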

[3] = tested on: Streptococcus pyogenes SSI-9; assay: Antibacterial activity assay of bead-derived peptides (three concentrations); format: cell-based; set-up: key: +++: inhibition by the 640-fold diluted peptide solution; ++: inhibition by the 160-fold diluted solution; +: inhibition by the 40-fold diluted solution; -: no inhibition; settings: S. pyogenes, bead-derived peptide solution, three concentrations
How it was run: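 First, each peptide stock was diluted 4- and 16-fold in DMSO; next, the three solutions were mixed with S. pyogenes SSI-9 suspension (2 × 10^5 CFU) in cation-adjusted Mueller Hinton Broth plus 5% laked horse blood; finally, plates stood 18 h at 37 °C before checking for grown-cell precipitation.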

SMILES | H+/Na+ transport activity normalized against the value of 1 (1.00) [1] | cell viability/% [2] [%] | antibacterial activity [3]
CC(C)C[C@@H](NC(=O)[C@H](C)NC(=O)[C@H](NC(=O)[C@H](C)NC(=O)CNC(=O)[C@@H](NC=O)C(C)C)[C@H](C)O)C(=O)N[C@H](C(=O)N[C@H](CC(C)C)C(=O)N[C@@H](Cc1c[nH]c2ccccc12)C(=O)N[C@H](CC(C)C)C(=O)N[C@@H](Cc1c[nH]c2ccccc12)C(=O)N[C@H](CC(C)C)C(=O)N[C@@H](Cc1c[nH]c2ccccc12)C(=O)N[C@H](CC(C)C)C(=O)N[C@@H](Cc1c[nH]c2ccccc12)C(=O)NCCO)C(C)C [compound 7905] (For-VGA[dT]A[dL]V[dL]W[dL]W[dL]W[dL]W-NHCH2CH2OH) | 1.10 | 100.0 | -
CC(C)C[C@@H](NC(=O)[C@H](Cc1c[nH]c2ccccc12)NC(=O)[C@@H](CC(C)C)NC(=O)[C@H](Cc1c[nH]c2ccccc12)NC(=O)[C@@H](CC(C)C)NC(=O)[C@H](Cc1c[nH]c2ccccc12)NC(=O)[C@H](NC(=O)[C@@H](NC(=O)[C@H](NC(=O)[C@H](C)NC(=O)[C@H](NC(=O)[C@H](C)NC(=O)CNC(=O)[C@@H](NC=O)C(C)C)C(C)C)C(C)C)C(C)C)C(C)C)C(=O)N[C@@H](Cc1c[nH]c2ccccc12)C(=O)NCCO [compound 3311] (For-VGA[dV]A[dV]V[dV]W[dL]W[dL]W[dL]W-NHCH2CH2OH) | 1.14 | 3.3 | ++
CC(C)C[C@@H](NC(=O)[C@H](C)NC(=O)[C@H](NC(=O)[C@H](C)NC(=O)CNC(=O)[C@@H](NC=O)C(C)C)C(C)C)C(=O)N[C@H](C(=O)N[C@H](CC(C)C)C(=O)N[C@@H](Cc1c[nH]c2ccccc12)C(=O)N[C@@H](C(=O)N[C@@H](Cc1c[nH]c2ccccc12)C(=O)N[C@H](CC(C)C)C(=O)N[C@@H](Cc1c[nH]c2ccccc12)C(=O)N[C@@H](C(=O)N[C@@H](Cc1c[nH]c2ccccc12)C(=O)NCCO)C(C)C)C(C)C)C(C)C [compound 9742] (For-VGA[dV]A[dL]V[dL]W[dV]W[dL]W[dV]W-NHCH2CH2OH) | 1.21 | 0.0 | +
CC(C)C[C@@H](NC(=O)[C@H](Cc1c[nH]c2ccccc12)NC(=O)[C@@H](CC(C)C)NC(=O)[C@H](Cc1c[nH]c2ccccc12)NC(=O)[C@@H](CC(C)C)NC(=O)[C@H](Cc1c[nH]c2ccccc12)NC(=O)[C@H](NC(=O)[C@@H](NC(=O)[C@H](NC(=O)[C@H](C)NC(=O)[C@H](NC(=O)[C@H](C)NC(=O)CNC(=O)[C@@H](NC=O)C(C)C)C(C)C)C(C)C)C(C)C)C(C)C)C(=O)N[C@@H](Cc1c[nH]c2ccccc12)C(=O)NCCO [compound 662] (For-VGA[dV]A[dV]V[dV]W[dL]W[dL]W[dL]W-NHCH2CH2OH) | 1.04 | 1.5 | +++
CNC(=O)C[C@@H](NC(=O)[C@@H](NC(=O)[C@H](NC(=O)[C@H](C)NC(=O)[C@@H](CC(C)C)NC(=O)[C@H](C)NC(=O)CNC(=O)[C@@H](NC=O)C(C)C)C(C)C)C(C)C)C(=O)N[C@@H](Cc1c[nH]c2ccccc12)C(=O)N[C@H](CC(C)C)C(=O)N[C@@H](Cc1c[nH]c2ccccc12)C(=O)N[C@@H](C(=O)N[C@@H](Cc1c[nH]c2ccccc12)C(=O)N[C@@H](C(=O)N[C@@H](Cc1c[nH]c2ccccc12)C(=O)NCCO)C(C)C)C(C)C [compound 2932] (For-VGA[dL]A[dV]V[dD](NHMe)W[dL]W[dV]W[dV]W-NHCH2CH2OH) | 1.27 | 87.5 | -
CC(C)C[C@@H](NC(=O)[C@H](C)NC(=O)CNC(=O)[C@@H](NC=O)C(C)C)C(=O)N[C@@H](C)C(=O)N[C@H](CC(C)C)C(=O)N[C@H](C(=O)N[C@@H](C(=O)N[C@@H](Cc1c[nH]c2ccccc12)C(=O)N[C@@H](C(=O)N[C@@H](Cc1c[nH]c2ccccc12)C(=O)N[C@@H](C(=O)N[C@@H](Cc1c[nH]c2ccccc12)C(=O)N[C@@H](C(=O)N[C@@H](Cc1c[nH]c2ccccc12)C(=O)NCCO)C(C)C)C(C)C)C(C)C)C(C)C)C(C)C [compound 7845] (For-VGA[dL]A[dL]V[dV]W[dV]W[dV]W[dV]W-NHCH2CH2OH) | 1.04 | 100.0 | +
CNC(=O)C[C@@H](NC(=O)[C@@H](NC(=O)[C@H](NC(=O)[C@H](C)NC(=O)[C@@H](CC(C)C)NC(=O)[C@H](C)NC(=O)CNC(=O)[C@@H](NC=O)C(C)C)C(C)C)C(C)C)C(=O)N[C@@H](Cc1c[nH]c2ccccc12)C(=O)N[C@@H](C(=O)N[C@@H](Cc1c[nH]c2ccccc12)C(=O)N[C@H](CC(C)C)C(=O)N[C@@H](Cc1c[nH]c2ccccc12)C(=O)N[C@H](CC(C)C)C(=O)N[C@@H](Cc1c[nH]c2ccccc12)C(=O)NCCO)C(C)C [compound 7808] (For-VGA[dL]A[dV]V[dD](NHMe)W[dV]W[dL]W[dL]W-NHCH2CH2OH) | 1.21 | 100.0 | -
CC(C)C[C@@H](NC(=O)[C@H](C)NC(=O)CNC(=O)[C@@H](NC=O)C(C)C)C(=O)N[C@@H](C)C(=O)N[C@@H](C(=O)N[C@H](C(=O)N[C@@H](C(=O)N[C@@H](Cc1c[nH]c2ccccc12)C(=O)N[C@@H](C(=O)N[C@@H](Cc1c[nH]c2ccccc12)C(=O)N[C@H](CC(C)C)C(=O)N[C@@H](Cc1c[nH]c2ccccc12)C(=O)N[C@@H](C(=O)N[C@@H](Cc1c[nH]c2ccccc12)C(=O)NCCO)C(C)C)C(C)C)C(C)C)C(C)C)[C@H](C)O [compound 3364] (For-VGA[dL]A[dT]V[dV]W[dV]W[dL]W[dV]W-NHCH2CH2OH) | 1.09 | 100.0 | -
CC(C)C[C@@H](NC(=O)[C@H](C)NC(=O)[C@H](NC(=O)[C@H](C)NC(=O)CNC(=O)[C@@H](NC=O)C(C)C)C(C)C)C(=O)N[C@H](C(=O)N[C@@H](C(=O)N[C@@H](Cc1c[nH]c2ccccc12)C(=O)N[C@@H](C(=O)N[C@@H](Cc1c[nH]c2ccccc12)C(=O)N[C@@H](C(=O)N[C@@H](Cc1c[nH]c2ccccc12)C(=O)N[C@@H](C(=O)N[C@@H](Cc1c[nH]c2ccccc12)C(=O)NCCO)C(C)C)C(C)C)C(C)C)C(C)C)C(C)C [compound 8909] (For-VGA[dV]A[dL]V[dV]W[dV]W[dV]W[dV]W-NHCH2CH2OH) | 1.04 | 85.9 | +
CC(C)C[C@@H](NC(=O)[C@H](C)NC(=O)CNC(=O)[C@@H](NC=O)C(C)C)C(=O)N[C@@H](C)C(=O)N[C@H](CC(C)C)C(=O)N[C@H](C(=O)N[C@@H](C(=O)N[C@@H](Cc1c[nH]c2ccccc12)C(=O)N[C@@H](C(=O)N[C@@H](Cc1c[nH]c2ccccc12)C(=O)N[C@@H](C(=O)N[C@@H](Cc1c[nH]c2ccccc12)C(=O)N[C@H](CC(C)C)C(=O)N[C@@H](Cc1c[nH]c2ccccc12)C(=O)NCCO)C(C)C)[C@H](C)O)C(C)C)C(C)C [compound 6950] (For-VGA[dL]A[dL]V[dV]W[dT]W[dV]W[dL]W-NHCH2CH2OH) | 1.06 | 100.0 | -
CC(C)C[C@@H](NC(=O)[C@H](C)NC(=O)CNC(=O)[C@@H](NC=O)C(C)C)C(=O)N[C@@H](C)C(=O)N[C@@H](C(=O)N[C@H](C(=O)N[C@H](CC(C)C)C(=O)N[C@@H](Cc1c[nH]c2ccccc12)C(=O)N[C@@H](C(=O)N[C@@H](Cc1c[nH]c2ccccc12)C(=O)N[C@@H](C(=O)N[C@@H](Cc1c[nH]c2ccccc12)C(=O)N[C@@H](C(=O)N[C@@H](Cc1c[nH]c2ccccc12)C(=O)NCCO)C(C)C)C(C)C)C(C)C)C(C)C)C(C)C [compound 8796] (For-VGA[dL]A[dV]V[dL]W[dV]W[dV]W[dV]W-NHCH2CH2OH) | 1.15 | 74.1 | +
CC(C)C[C@@H](NC(=O)[C@H](Cc1c[nH]c2ccccc12)NC(=O)[C@H](NC(=O)[C@H](Cc1c[nH]c2ccccc12)NC(=O)[C@H](NC(=O)[C@H](Cc1c[nH]c2ccccc12)NC(=O)[C@H](NC(=O)[C@@H](NC(=O)[C@H](NC(=O)[C@H](C)NC(=O)[C@H](NC(=O)[C@H](C)NC(=O)CNC(=O)[C@@H](NC=O)C(C)C)C(C)C)[C@H](C)O)C(C)C)C(C)C)C(C)C)C(C)C)C(=O)N[C@@H](Cc1c[nH]c2ccccc12)C(=O)NCCO [compound 13062] (For-VGA[dV]A[dT]V[dV]W[dV]W[dV]W[dL]W-NHCH2CH2OH) | 1.06 | 92.8 | -
CC(C)C[C@@H](NC(=O)[C@H](C)NC(=O)CNC(=O)[C@@H](NC=O)C(C)C)C(=O)N[C@@H](C)C(=O)N[C@@H](C(=O)N[C@H](C(=O)N[C@@H](C(=O)N[C@@H](Cc1c[nH]c2ccccc12)C(=O)N[C@@H](C(=O)N[C@@H](Cc1c[nH]c2ccccc12)C(=O)N[C@@H](C(=O)N[C@@H](Cc1c[nH]c2ccccc12)C(=O)N[C@@H](C(=O)N[C@@H](Cc1c[nH]c2ccccc12)C(=O)NCCO)C(C)C)C(C)C)C(C)C)C(C)C)C(C)C)C(C)C [compound 7516] (For-VGA[dL]A[dV]V[dV]W[dV]W[dV]W[dV]W-NHCH2CH2OH) | 1.03 | 100.0 | +

— PMC7531004, “Discovery of gramicidin A analogues with altered activities by multidimensional screening of a one-bead-one-compound library” (Nature Communications, 2020)
